# Tests used:
# [1] = test system: 4T1 breast cancer, TC1 lung cancer, EL4 thymoma, AE17 mesothelioma, AKR esophageal cancer flank tumors; test: NIR labeling of syngeneic flank tumors in mice with systemic ICG (tissue spectrometer); settings: 7.5 mg/kg ICG via tail vein, next day, flank tumors ~200 mm^3, five cell lines
# Protocol: (§1) Preclinical evidence for NM tumor labeling to detect primary and metastatic tumor deposits. (A) Six cancer cell types were injected into the flank of syngeneic mice. Once established (200 mm3), animals were dosed with 7.5 mg/kg of ICG and imaged. Tumors were harvested, imaged and stained for CD31. Histology images taken at 200× magnification (B) C57bl/6 mice (n=21) were injected with LLC cells in their flanks on Day 0. Starting on Day 12, the animals were euthanized, dosed with 7.5 mg/kg ICG 20 hours earlier and their thoracic cavities opened. Observers determined if the metastatic tumor nodules were visible in the lung. NIR imaging was then used to detect disease that was not visible to the un-assisted human eye.
# After the tumors were well established (˜200 mm^3), 7.5 mg/kg of ICG was administered via the tail vein. The next day, a tissue spectrometer was used to semi-quantitate fluorescence from the tumor, surrounding tissue and 12 organs. […] Tumors were harvested, sectioned and assayed for microvessel density to determine if there was a correlation between tumor vascularity and fluorescence (FIG. 1a).
# All mice were maintained in pathogen-free conditions and used for experiments at ages 8 week or older. […] Tumor cells for subcutaneous injections were suspended in 100 μL PBS. Tumor volume was calculated using the formula (π×long-axis×short-axis^2)/6. […]
# human tumors [2] = test: Ex vivo analysis of tumor fluorescence of resected specimens (NIR imaging, hand-held spectrometer); format: in vivo
# Source text: Following in vivo imaging, the patients then underwent a standard-of-care surgical resection of the tumor. Once removed from the patient, the specimen was examined, opened, biopsied and analyzed ex vivo (FIG. 2a). Every case was photo-documented both by brightfield imaging and NIR imaging. […] Then, the hand held spectrometer was used to semi-quantitate tissue fluorescence. Each tumor had 4 measurements at four perpendicular locations and the center of the tumor (total of 20 measurements/tumor). Mean fluorescence in the human tumors was 53,304±4193 au in 25 out of 27 masses (93%) (FIG. 2b). We conjectured that the center of the tumor might be less fluorescent than the periphery due to necrosis or, conversely, that the center of the tumor might be more fluorescent than the periphery due to increased ICG retention. We found neither to be true. The fluorescence from the tumors was remarkably homogeneous throughout the tumor. We believe this reflects “bleed over” of the fluorescent signal from different areas of the tumor surface. The quality of the image was subjectively better ex vivo than in vivo due to the lack of respiratory motion, light artifact and glare from surrounding tissue retractors. Depending on the different tissues removed from each patient as part of the standard operation, a thorough spectroscopic examination was performed. The average signal diminished from over 50,000 au at the tumor margin to less than 12,000 au within 2 mm of the gross tumor margin. There were some higher signals in areas of atelectatic lung (range 0 to 24,832 au), however, this could easily be distinguished from the tumor by manual palpation. The background signal was measured from the patients' skin, muscles (latissmus dorsi, serratus anterior, intercostal), pericardium, normal lung, lymph nodes, adipose tissues, nerves (intercostal), airway and thymus whenever safely possible (FIG. 2b).
# There were 25 cancers and 2 non-cancers (aspergilloma and pulmonary infarct). The two masses that were not fluorescent were a metastatic melanoma (7,342±411 au) and a pulmonary infarct (hematoma, 8,002±554 au). The aspergillus ball, a localized fungus infection, was fluorescent (58,209±1,302 au) likely due to the strong inflammatory reaction surrounding it. […] The pulmonary infarct or hematoma was an old clot secondary to trauma in a person that had been mistaken for a cancer on preoperative imaging. […]
# [3] = Semi-quantification of ICG concentration in plasma (fluorometry); format: in vivo, human
# Protocol: Techniques have been previously described to use fluorometry to quantify concentrations of ICG in plasma. We obtained aliquots of each patient's blood before injection with ICG. These samples were spun down at 1100 RPM for 10 minutes and aliquots of plasma were removed. 2 mg of ICG was dissolved in 1 ml of plasma and serially diluted thirteen times to a concentration of 125 μg per liter. 100 microliters of each of these dilutions were pipetted into a separate wells in a standard black 96 well plate along with one well of 100 microliters of plasma without ICG. At the time of operation, each patient had their plasma obtained and serially diluted six times to a final ratio of 1:1000. Plates were examined using a SpetraMax Fluorometer® with a peak excitation of 805 nm and 830 nm. Each well was scanned 6 times. Readings were export as Microsoft Excel® spread sheets.
# Lewis Lung Cancer (LLC) = test: NIR detection of flank tumors and pulmonary metastases in the LLC mouse model
# Protocol: as §1
# Starting on Day 12, mice (n=9) were injected with 7.5 mg/kg of ICG via tail vein every three days. […] Subsequently, the chest was opened and inspected for NIR emission from pulmonary metastases.
# Female C57BL/6 (B6, Thy1.2), BALB/c, athymic Ncr-nu/nu and B6-12931 hybrid mice mice were purchased from Charles River Laboratories and Jackson Laboratories. All mice were maintained in pathogen-free conditions and used for experiments at ages 8 week or older. […] Tumor cells for subcutaneous injections were suspended in 100 μL PBS. Tumor volume was calculated using the formula (π×long-axis×short-axis^2)/6.
# Pharmaceutical grade indocyanine green (ICG) was purchased from Akorn Pharmaceuticals (Lake Forest, Ill.). Mice received 7.5 mg/kg ICG via tail vein 20 hours prior to surgery.
# A hand-held near infrared spectrometer has been previously described in detail.^18 In brief, a Raman probe detector was incorporated into a cylindrical stainless steel sampling head integrated with a 5 m, two-fiber cable; one for laser excitation and the other for light collection. The sampling head and fiber cable were coupled via an FC connector to a spectrometer. The combined sampling head and spectrometer system has a wavelength range of 800-930 nm with 0.6 nm spectral resolution for near infrared (NIR) fluorescence measurement. […] The signal can be semi-quantitated from 0 to 60,000 arbitrary units (au).
# [4] = in vivo, cited from earlier work
# [5] = cited from earlier work
# chest and breast tumors = test: Pilot patient study: intraoperative in vivo/in situ NIR imaging of tumor fluorescence
# Protocol: Between January and June 2012, 27 consecutive patients who were candidates for surgical removal of chest and breast tumors were enrolled in this study (Table 1). Patients were given a single peripheral vein injection of 5 mg/kg ICG, 24 hours prior to surgery. […] Their ages ranged from 31 to 78 years (median=65 years). […] All enrolled patients were thought to have limited disease, amenable to surgery, and had no metastases (ie. potentially curable). […] Preoperative computed axial and positron emission tomography and/or magnetic resonance imaging predicted no metastatic disease in each case. The median tumor size was 2.0 cm (range 0.6-13.0 cm) on preoperative imaging. Each patient had serum obtained before and 24 hours after ICG injection.
# To determine if indocyanine green would be delivered to human tumors, patients undergoing cancer surgery were first imaged in vivo at the onset of the operation. At the time of surgery, the chest was opened and inspected by standard visualization and manual palpation. […] A dual camera head with a brightfield and a NIR output was then used to visualize tumor fluorescence (FIG. 7). […] Attempts to quantitate tumor fluorescence in vivo were not feasible for several reasons including variations in operating room conditions, lack of miniaturized tissue spectrometer with safe laser light source and the inability to control for changes in distance from the specimen to the tip of the spectrometer. […] All quantitative measurements were made later ex vivo once the specimen had been removed. To examine in vivo data on the distribution of ICG, a complete visual examination of the each patients' skin, muscles (lattismus dorsi, serratus anterior, intercostal, diaphragm), pericardium and heart, aorta, normal lung, lymph nodes, adipose tissues, nerves (phrenic, intercostal), and thymus was performed whenever possible.
# Thus, prior to closing the body cavity but after the tumor was removed, the chest or breast was inspected visually and by manual palpation for sites of cancer metastases. […] Then, to validate the surgeons' clinical decision, the chest was imaged for NIR fluorescence.
# The other application of tumor fluorescence during surgery was to confirm that resection was complete and that no tumor cells were left behind in the surgical field. Thus, once the surgeons had completed each case and decided they had obtained disease clearance at the surgical site, the surgical wound and resection field was imaged.
# human tumors [6] = test: Semi-quantification of ICG concentration in tumors (imaging beside ICG standard panel); format: in vivo
# Protocol: To quantify the concentration of ICG in the resected tissues, normal (control) and cancerous tissues were imaged ex vivo alongside a standard control panel of known concentrations of ICG aliquots mixed with plasma from the same patient. Our system was able to detect concentrations between 0 μg/ml and 2000 μg/ml. […] However, in the tumors, there was a broad range of ICG concentration. In 9 of the 10 specimens, the ICG concentration ranged from 2 to 100 μg/ml (FIG. 3c). No tumor fluoresced above an ICG concentration of 100 μg/ml. However, from a subjective point-of-view, the surgeon was not able to identify any tumors as more or less fluorescent. One cancer (metastatic melanoma) had less than 1 μg/ml of ICG and was not subjectively fluorescent to the surgeon. We also attempted to measure ICG concentration in the tissue by homogenizing punch biopsies and measuring fluorescence in a standard desk fluorometer, however, this approach was unreliable.
# To quantify the maximum concentration of ICG in each tumor, 10 patients had their plasma collected at the time of operation. Two mg of ICG was dissolved in 1 ml of plasma and serially diluted 8 times to a final ratio of 1:20,000. 100 μL of stock solution and each dilution was then placed in consecutive wells in a black 96 well plate. When tumors were imaged ex-vivo, this plate was concurrently imaged. These images were then imported into ImageJ® software. Region of interest (ROI) data was taken from each of the 9 wells and from the tumor. The maximum fluorescent signal from the tumor was compared to the wells to determine the highest concentration per tumor. Each tumor was then categorized as have an ICG concentration between given the standards in the known panel.
# [7] = ex vivo spectroscopic examination
smiles,measurement,setting,value
"CC1(C)C(/C=C/C=C/C=C/C=C2\N(CCCCS(=O)(=O)[O-])c3ccc4ccccc4c3C2(C)C)=[N+](CCCCS(=O)(=O)[O-])c2ccc3ccccc3c21.[Na+] [ICG, indocyanine green]",mean fluorescence from the tumor,[1],"54,238 au"
same,"masses with strong fluorescence, qualitative NIR imaging","human tumors [2]; 25 out of 27 masses, ex vivo",92%
same,mean fluorescence in the human tumors,"human tumors [2]; 25 out of 27 masses, ex vivo hand held spectrometer","53,304±4193 au"
same,fluorescence of non-fluorescent metastatic melanoma,human tumors [2]; ex vivo,"7,342±411 au"
same,mean fluorescence of highly fluorescent melanoma,human tumors [2]; ex vivo,"57,210 au"
same,mean fluorescence of minimally fluorescent melanoma in a different patient,human tumors [2]; ex vivo,"7,332 au"
same,signal in areas of atelectatic lung (range),human tumors [2]; ex vivo,"0 to 24,832 au"
same,average signal at the tumor margin,human tumors [2]; [7],"over 50,000 au"
same,average signal within 2 mm of the gross tumor margin,human tumors [2]; [7],"less than 12,000 au"
same,fluorescence of aspergillus ball,"human tumors [2]; ex vivo, localized fungus infection","58,209±1,302 au"
same,fluorescence of pulmonary infarct (hematoma),"human tumors [2]; ex vivo, non-cancer","8,002±554 au"
same,background signal in surrounding tissue in the body cavity,"human tumors [2]; skin, muscles, pericardium, normal lung, lymph nodes, adipose, nerves, airway, thymus",no evidence of background signal
same,ICG in patient's plasma 24 hours after ICG injection,[3]; SpetraMax Fluorometer,No measurable ICG
same,ICG in plasma after 20 hours,"[3]; patients, 5 mg/kg ICG peripheral vein, fluorometric interrogation of serum",no patient had detectable ICG
same,earliest day NIR signal from pulmonary metastases detected,"Lewis Lung Cancer (LLC); LLC injected Day 0, 7.5 mg/kg ICG, deposits not visible to un-assisted eye",15 days
same,smallest pulmonary metastatic deposit detected,Lewis Lung Cancer (LLC); by histology,0.4 mm
same,background fluorescence (mean),Lewis Lung Cancer (LLC); murine lung,4290 au
same,"fraction of ICG binding to serum proteins (albumin, lipoproteins) upon injection into the blood",[4],95%
same,known toxicity of the agent,[5]; Indocyanine Green for Injection USP,no known toxicity
same,cancer cases in which fluorescence identified unrecognized metastatic tumor deposits,"chest and breast tumors; 2 patients, sites greater than 5 cm from primary tumor, confirmed by frozen biopsy",8%
same,cases in which dual camera head could detect tumor fluorescence in vivo,"chest and breast tumors; 16 out of 27 cases, 5 mg/kg ICG 24 hours prior to surgery",59%
same,fluorescence of three metastatic sites in right lower pulmonary lobe,chest and breast tumors; Patient #2,"> 48,000 au"
same,"smallest metastatic nodule detected, diameter",chest and breast tumors; Patient #2,0.4 mm
same,mean fluorescence of breast mass in the operating room,"chest and breast tumors; Patient #24, infiltrative ductal carcinoma","52,748 au"
same,"in vivo fluorescence of normal tissues (skin, muscles, pericardium, heart, aorta, lung, lymph nodes, adipose, nerves, thymus)","chest and breast tumors; all cases, visual examination",no tissue fluorescence except the abnormal tumor
same,"deepest tumor that could be detected, distance from the surface of the organ",chest and breast tumors; in vivo NIR imaging,~1 cm
same,Clinical Details: lesion fluorescence,chest and breast tumors; per case,Benign lesion did not glow.
same,ICG concentration in tumors,"human tumors [6]; 9 of the 10 specimens, ex vivo",2 to 100 µg/mL
same,ICG concentration in control tissues of normal lung,"human tumors [6]; ex vivo, 5 mg/kg ICG",undetectable
same,ICG concentration in metastatic melanoma,"human tumors [6]; one cancer, not subjectively fluorescent",less than 1 μg/ml
same,patients upstaged by intraoperative imaging of fluorescent tumors,2 out of 27 patients,7.4%
same,"toxicities, adverse events or deaths related to injection of ICG","27 patients, 5 mg/kg ICG","no obvious toxicities, adverse events or deaths"
CN1C(=CC=C2CCCC(C=CC3=[N+](C)c4ccccc4C3(C)C)=C2Cl)C(C)(C)c2ccccc21.[O-][Cl+3]([O-])([O-])[O-] [IR-786],clearance after intravenous injection,[4]; iv,"rapidly extracted into many tissues in the body, especially the liver, and is inefficiently transported into bile"
"CN(C)c1ccc2nc3ccc(=[N+](C)C)cc-3sc2c1 [MB, methylene blue]",adverse reactions,"[5]; 7.5 mg/kg, e.g. methemoglobinaemia or anaphylaxis",sometimes causes severe adverse reactions

# Reference: patent US20150030542A1, “METHODS FOR MEDICAL IMAGING” (priority 2013, published 2015)
